Results taken from patent publication US11324750B2, “Compositions and methods for the treatment of severe acute respiratory syndrome coronavirus 2 (SARS-CoV-2) infection” (Children's Hospital Medical Center, priority 2020, dated 2022).

Test system: severe COVID-19 patients
Assay: Randomized controlled trial, safety: adverse events up to day 28
Type: in vivo, human
Conditions: for ALT increase, % patients / ALT increase, n patients / AST increase, % patients / AST increase, n patients / Acute heart failure, n patients / Alkaline phosphatase increase, % patients / Alkaline phosphatase increase, n patients / Anemia, % patients / Anemia, n patients / Chemical laboratory abnormalities, % patients / Chemical laboratory abnormalities, n patients / Decreased appetite, % patients / Decreased appetite, n patients / Dizziness, % patients / Dizziness, n patients / Headache, % patients / Headache, n patients / Hematological adverse events, % patients / Hematological adverse events, n patients / Hypercholesterolemia, % patients / Hypercholesterolemia, n patients / Hypertension, % patients / Hypertension, n patients / Hypertriglyceridemia, n patients / Hypoalbuminemia, % patients / Hypoalbuminemia, n patients / Hypocalcemia, % patients / Hypocalcemia, n patients / Hypochloremia, % patients / Hypochloremia, n patients / Hypokalemia, % patients / Hypokalemia, n patients / Lymphocytopenia, % patients / Lymphocytopenia, n patients / Nausea, % patients / Nausea, n patients / Neutrocytopenia, % patients / Neutrocytopenia, n patients / Rash, % patients / Rash, n patients / Secondary Infection, n patients / Sepsis, n patients / Serious adverse events, n patients / Shock, n patients / Thrombocytopenia, % patients / Thrombocytopenia, n patients / γ-GT increase, % patients / γ-GT increase, n patients / Adverse events, % patients / Adverse events, n patients: N = 20, through day 28; for Adverse events, % patients / Adverse events, n patients: line above headache, dizziness, rash, nausea, decreased appetite, hypertension
Description: As of the effective date of this application, no therapeutics have yet been proven effective for the treatment of severe COVID-19 with cytokine storm. Ruxolitinib, a potent and selective oral inhibitor of Janus kinase (JAK) 1 and JAK2, was proposed by Applicant to be beneficial in the treatment of cytokine storm. Applicant conducted a prospective, multicenter, single-blind, randomized controlled trial involving participants diagnosed as severe COVID-19 patients. The enrolled patients were randomly separated into two groups with a 1:1 allocation by an independent statistician in blocks of 4 for all 3 sites. Study number and treatment allocation codes were provided in sequentially numbered opaque envelops. Intervention group is treated with ongoing oral intake 5 mg of ruxolitinib (Jakafi®, Novartis Pharma Stein AG, Switzerland) twice a day based on the standard-of-care (SoC); the control group is treated with placebo plus SoC. The primary endpoint was the incidence of serious adverse events occurring up to 28 days and the time to clinical improvement. The secondary endpoint is the overall mortality at D28. This trial is registered at www.chictr.org.cn as ChiCTR-OPN-2000029580.
Procedures. The first day of randomization was designated as D0. The second and the fourth day after randomization were designated D1 and D3, respectively. Dx referred to the day when either disease progressed according to the Chinese management guideline for COVID-19 (version 5.0) or defined as a one-category increase on the seven-category scale. Dend was the day before discharge. The enrolled patients were randomly separated into two groups: the treatment group (group B) received oral intake of ruxolitinib (Jakafi®, Novartis Pharma Stein AG, Switzerland) 5 mg twice a day plus standard-of-care (SoC); the control group (group A) is treated with placebo twice a day with SoC. The SoC included supplemental oxygen, noninvasive and invasive ventilation, corticosteroid, antibiotic agents, vasopressor support, renal-replacement therapy, and extracorporeal membrane oxygenation (ECMO) etc. Safety was monitored daily by two independent senior physicians from the trial center. Adverse events were classified according to the National Cancer Institute Common Terminology Criteria for Adverse Events, version 5.0. Non-contrast enhanced chest CT examinations were performed on D0 and followed-up at least once within two weeks. Additional chest CT may be performed if the condition deteriorated. All CT images were reviewed using Picture archiving and communication system (PACS). The CT features of improvement were evaluated by two independent senior radiologists blindly, which should at least meet one of the following criteria: decreased presence of ground-glass opacities (GGO), decreased lung opacification, reduced density of consolidation or decreased pleural effusion with existence of fibrous stripes^29. Peripheral blood was taken from patients on D1, D3, Dx and/or Dend for the determination of viral load by one-step RT-ddPCR, SARS-CoV-2-specific IgM and IgG by paramagnetic particle chemiluminescent immunoassay (CLIA) and cytokines measurements by Luminex FlEXMAP 3D system. Every participant's data is filled in one case record form (CRF). All the CRF tables were inputted and saved by researchers into an electronic data capture system (EDCS) and validated by a trial staff, including demographics, medical history, daily clinical findings, oximetric measurements and laboratory data involving complete blood count, serum biochemical parameters and high sensitivity C-reactive protein (hsCRP) etc.
Outcomes. The primary safety endpoint was the incidence of serious adverse events occurring up to 28 days. Safety outcomes included adverse events that occurred during treatment, serious adverse events and premature discontinuation of treatment. […]

[1] = Grade 3-4, listed as ruxolitinib

N#CC[C@H](C1CCCC1)n1cc(-c2ncnc3[nH]ccc23)cn1 [Ruxolitinib, (3R)-3-cyclopentyl-3-[4-(7H-pyrrolo[2,3-d]pyrimidin-4-yl)pyrazol-1-yl]propanenitrile]
ALT increase, % patients (Any Grade): (35.0%)
ALT increase, n patients (Any Grade): 7
AST increase, % patients (Any Grade): (15.0%)
AST increase, n patients (Any Grade): 3
Acute heart failure, n patients (Any Grade): 0
Alkaline phosphatase increase, % patients (Any Grade): (10.0%)
Alkaline phosphatase increase, n patients (Any Grade): 2
Anemia, % patients (Any Grade): (55.0%)
Anemia, n patients (Any Grade): 11
Chemical laboratory abnormalities, % patients (Any Grade): (50.0%)
Chemical laboratory abnormalities, n patients (Any Grade): 10
Decreased appetite, % patients (Any Grade): (5.0%)
Decreased appetite, n patients (Any Grade): 1
Dizziness, % patients (Any Grade): (10.0%)
Dizziness, n patients (Any Grade): 2
Headache, % patients (Any Grade): (5.0%)
Headache, n patients (Any Grade): 1
Hematological adverse events, % patients (Any Grade): (65.0%)
Hematological adverse events, n patients (Any Grade): 13
Hypercholesterolemia, % patients (Any Grade): (20.0%)
Hypercholesterolemia, n patients (Any Grade): 4
Hypertension, % patients (Any Grade): (5.0%)
Hypertension, n patients (Any Grade): 1
Hypertriglyceridemia, n patients (Any Grade): 0
Hypoalbuminemia, % patients (Any Grade): (5.0%)
Hypoalbuminemia, n patients (Any Grade): 1
Hypocalcemia, % patients (Any Grade): (5.0%)
Hypocalcemia, n patients (Any Grade): 1
Hypochloremia, % patients (Any Grade): (5.0%)
Hypochloremia, n patients (Any Grade): 1
Hypokalemia, % patients (Any Grade): (5.0%)
Hypokalemia, n patients (Any Grade): 1
Lymphocytopenia, % patients (Any Grade): (5.0%)
Lymphocytopenia, n patients (Any Grade): 1
Nausea, % patients (Any Grade): (10.0%)
Nausea, n patients (Any Grade): 2
Neutrocytopenia, % patients (Any Grade): (5.0%)
Neutrocytopenia, n patients (Any Grade): 1
Rash, % patients (Any Grade): (10.0%)
Rash, n patients (Any Grade): 2
Secondary Infection, n patients (Any Grade): 0
Sepsis, n patients (Any Grade): 0
Serious adverse events, n patients (Any Grade): 0
Shock, n patients (Any Grade): 0
Thrombocytopenia, % patients (Any Grade): (20.0%)
Thrombocytopenia, n patients (Any Grade): 4
γ-GT increase, % patients (Any Grade): (10.0%)
γ-GT increase, n patients (Any Grade): 2
Adverse events, % patients (Any Grade): (35.0%)
Adverse events, n patients (Any Grade): 7
ALT increase, % patients (Grade 1-2): (35.0%)
ALT increase, n patients (Grade 1-2): 7
AST increase, % patients (Grade 1-2): (15.0%)
AST increase, n patients (Grade 1-2): 3
Acute heart failure, n patients (Grade 1-2): 0
Alkaline phosphatase increase, % patients (Grade 1-2): (10.0%)
Alkaline phosphatase increase, n patients (Grade 1-2): 2
Anemia, % patients (Grade 1-2): (55.0%)
Anemia, n patients (Grade 1-2): 11
Chemical laboratory abnormalities, % patients (Grade 1-2): (50.0%)
Chemical laboratory abnormalities, n patients (Grade 1-2): 10
Decreased appetite, % patients (Grade 1-2): (5.0%)
Decreased appetite, n patients (Grade 1-2): 1
Dizziness, % patients (Grade 1-2): (10.0%)
Dizziness, n patients (Grade 1-2): 2
Headache, % patients (Grade 1-2): (5.0%)
Headache, n patients (Grade 1-2): 1
Hematological adverse events, % patients (Grade 1-2): (60.0%)
Hematological adverse events, n patients (Grade 1-2): 12
Hypercholesterolemia, % patients (Grade 1-2): (20.0%)
Hypercholesterolemia, n patients (Grade 1-2): 4
Hypertension, n patients (Grade 1-2): 0
Hypertriglyceridemia, n patients (Grade 1-2): 0
Hypoalbuminemia, % patients (Grade 1-2): (5.0%)
Hypoalbuminemia, n patients (Grade 1-2): 1
Hypocalcemia, % patients (Grade 1-2): (5.0%)
Hypocalcemia, n patients (Grade 1-2): 1
Hypochloremia, % patients (Grade 1-2): (5.0%)
Hypochloremia, n patients (Grade 1-2): 1
Hypokalemia, % patients (Grade 1-2): (5.0%)
Hypokalemia, n patients (Grade 1-2): 1
Lymphocytopenia, % patients (Grade 1-2): (5.0%)
Lymphocytopenia, n patients (Grade 1-2): 1
Nausea, % patients (Grade 1-2): (10.0%)
Nausea, n patients (Grade 1-2): 2
Neutrocytopenia, % patients (Grade 1-2): (5.0%)
Neutrocytopenia, n patients (Grade 1-2): 1
Rash, % patients (Grade 1-2): (10.0%)
Rash, n patients (Grade 1-2): 2
Secondary Infection, n patients (Grade 1-2): 0
Sepsis, n patients (Grade 1-2): 0
Serious adverse events, n patients (Grade 1-2): 0
Shock, n patients (Grade 1-2): 0
Thrombocytopenia, % patients (Grade 1-2): (20.0%)
Thrombocytopenia, n patients (Grade 1-2): 4
γ-GT increase, % patients (Grade 1-2): (10.0%)
γ-GT increase, n patients (Grade 1-2): 2
Adverse events, % patients (Grade 1-2): (35.0%)
Adverse events, n patients (Grade 1-2): 7
ALT increase, n patients (Grade 3-4): 0
AST increase, n patients (Grade 3-4): 0
Acute heart failure, n patients (Grade 3-4): 0
Alkaline phosphatase increase, n patients (Grade 3-4): 0
Anemia, n patients (Grade 3-4): 0
Chemical laboratory abnormalities, n patients (Grade 3-4): 0
Decreased appetite, n patients (Grade 3-4): 0
Dizziness, n patients (Grade 3-4): 0
Headache, n patients (Grade 3-4): 0
Hematological adverse events, % patients (Grade 3-4): 5.0%
Hematological adverse events, n patients (Grade 3-4): 1
Hypercholesterolemia, n patients (Grade 3-4): 0
Hypertension, % patients (Grade 3-4): 5.0%
Hypertension, n patients (Grade 3-4): 1
Hypertriglyceridemia, n patients (Grade 3-4): 0
Hypoalbuminemia, n patients (Grade 3-4): 0
Hypocalcemia, n patients (Grade 3-4): 0
Hypochloremia, n patients (Grade 3-4): 0
Hypokalemia, n patients (Grade 3-4): 0
Lymphocytopenia, % patients (Grade 3-4): 5.0%
Lymphocytopenia, n patients (Grade 3-4): 1
Nausea, n patients (Grade 3-4): 0
Neutrocytopenia, n patients (Grade 3-4): 0
Rash, n patients (Grade 3-4): 0
Secondary Infection, n patients (Grade 3-4): 0
Sepsis, n patients (Grade 3-4): 0
Serious adverse events, n patients (Grade 3-4): 0
Shock, n patients (Grade 3-4): 0
Thrombocytopenia, n patients (Grade 3-4): 0
γ-GT increase, n patients (Grade 3-4): 0
Hematological adverse events, n patients [1]: 2
Hypertension, n patients [1]: One
Adverse events, n patients (Grade 3-4): 0
Adverse events at grade 3-4, number of events (all ruxolitinib recipients, lymphocytopenia and hypertension, transient and reversible): two
Patients who reported adverse events, % (from randomization to D28, primary safety endpoint): 80%
Unexpected adverse events (primary safety endpoint): No significant unexpected adverse events
Tolerability (ruxolitinib with SoC treatment): well tolerated
